{
  "source": "patent US6395683B1",
  "about": "“Heterocyclylbenzonitriles” (Bayer Aktiengesellschaft, priority 1994, dated 2002)",
  "assay_in_all_cases": "Post-emergence test",
  "type_in_all_cases": "in vivo",
  "key": {"Abutilon": {"test_system": "Abutilon", "settings": "30 g/ha, after three weeks", "experimental": "(§1) Post-emergence Test Solvent: 5 parts by weight of acetone Emulsifier: 1 part by weight of alkylaryl polyglycol ether To produce a suitable preparation of active compound, 1 part by weight of active compound is mixed with the stated amount of solvent, the stated amount of emulsifier is added and the concentrate is diluted with water to the desired concentration. Test plants which have a height of 5-15 cm are sprayed with the preparation of the active compound in such a way as to apply the particular amounts of active compound desired per unit area. After three weeks, the degree of damage to the plants is rated in % damage in comparison to the development of the untreated control. The figures denote: 0%=no action (like untreated control) 100%=total destruction"}, "Amaranthus": {"test_system": "Amaranthus", "settings": "30 g/ha, after three weeks", "experimental": "as §1"}, "Veronica": {"test_system": "Veronica", "settings": "30 g/ha, after three weeks", "experimental": "as §1"}, "Chenopodium": {"test_system": "Chenopodium", "settings": "30 g/ha, after three weeks", "experimental": "as §1"}, "barley": {"test_system": "barley", "settings": "30 g/ha, barley (crop plant), after three weeks", "experimental": "as §1"}},
  "data": [
    {"smiles": "CS(=O)(=O)Nc1cc(N2C(=O)C3=C(CCCC3)C2=O)c(F)cc1C#N", "note": "[Example 1, N-(4-cyano-2-fluoro-5-methylsulphonylaminophenyl)-3,4,5,6-tetrahydrophthalimide]", "values": [
      {"measurement": "degree of damage to the plants, % damage in comparison to untreated control", "setting": "Abutilon", "result": 100, "unit": "%"},
      {"measurement": "degree of damage to the plants, % damage in comparison to untreated control", "setting": "Amaranthus", "result": 100, "unit": "%"},
      {"measurement": "degree of damage to the plants, % damage in comparison to untreated control", "setting": "Veronica", "result": 100, "unit": "%"},
      {"measurement": "degree of damage to the plants, % damage in comparison to untreated control", "setting": "Chenopodium", "result": 95, "unit": "%"},
      {"measurement": "tolerance with respect to crop plants", "setting": "barley", "result": "very good tolerance"}
    ]}
  ]
}
